Results from patent publication US20230250060A1 (IFM Due, Inc., priority 2022, published 2023).

Biological target: T1, STING (Homo sapiens, UniProt Q86WV6, G230A/H232R/R293Q/R71H)
T1 construct: host or cells: THP1-Dual KO-IFNAR2 cells
Test: STING reporter assay (luciferase) in THP1-Dual KO-IFNAR2 cells stimulated with 2′3′cGAMP
Assay type: cell-based
Conditions: 2′3′cGAMP 15 μM final, 24 h, luciferase reporter activity, read-out: Pharmaron, THP1_IFNAR2 STING 24 h Luci Normalized: GeoMean EC50
How it was run: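 THP1-Dual KO-IFNAR2 cells (2×10E6 cells/mL) exposed to compounds at 0.0017-100 μM final and stimulated with 2′3′cGAMP (15 μM final) delivered via Lipofectamine 2000. After 24 h at 37° C., secreted luciferase in supernatant read with QUANTI-Luc Plus; EC50 derived from luminescence.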

T1 sequence (Q86WV6 whole entry R71H/G230A/H232R/R293Q): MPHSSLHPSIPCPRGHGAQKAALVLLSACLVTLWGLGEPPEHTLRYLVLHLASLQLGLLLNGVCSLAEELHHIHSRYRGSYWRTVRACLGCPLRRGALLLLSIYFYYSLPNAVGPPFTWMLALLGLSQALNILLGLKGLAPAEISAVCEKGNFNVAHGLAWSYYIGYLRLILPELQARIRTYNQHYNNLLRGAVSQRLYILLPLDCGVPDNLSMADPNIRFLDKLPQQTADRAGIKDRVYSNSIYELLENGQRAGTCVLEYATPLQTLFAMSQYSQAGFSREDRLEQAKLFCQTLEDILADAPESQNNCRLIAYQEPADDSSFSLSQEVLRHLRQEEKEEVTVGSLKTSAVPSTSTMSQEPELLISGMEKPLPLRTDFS

Row | SMILES | EC50
1 | O=C(Nc1c[nH]c2ccc(O[C@H]3C[C@H](c4ccc(C(F)(F)F)cc4)C3)cc12)c1ccncc1 [Compound 225, N-{5-[(1R,3R)-3-[4-(trifluoromethyl)phenyl]cyclobutoxy]-1H-indol-3-yl}pyridine-4-carboxamide] | 200 to 1000 nM
2 | Cn1cc(C(=O)Nc2c[nH]c3ccc(OCc4ccc(C(F)(F)F)cc4)cc23)nn1 [Compound 240, 1-methyl-N-(5-((4-(trifluoromethyl)benzyl)oxy)-1H-indol-3-yl)-1H-1,2,3-triazole-4-carboxamide] | 1000 to 5000 nM
3 | Cc1noc(C)c1C(=O)Nc1c[nH]c2ccc(O[C@H]3C[C@H](c4ccc(C(F)(F)F)cc4)C3)cc12 [Compound 234, 3,5-dimethyl-N-{5-[(1R,3R)-3-[4-(trifluoromethyl)phenyl]cyclobutoxy]-1H-indol-3-yl}-1,2-oxazole-4-carboxamide] | 200 to 1000 nM
4 | O=C(Nc1c[nH]c2ccc(O[C@H]3C[C@@H](c4ccc(C(F)(F)F)cc4)C3)cc12)c1ccn[nH]1 [Compound 167, N-(5-((1s,3s)-3-(4-(trifluoromethyl)phenyl)cyclobutoxy)-1H-indol-3-yl)-1H-pyrazole-5-carboxamide] | 40 to 200 nM
5 | O=C(Nc1c[nH]c2ccc(O[C@H]3C[C@@H](c4ccc(C(F)(F)F)cc4)C3)cc12)C12CC(F)(C1)C2 [Compound 132, 3-fluoro-N-(5-((1s,3s)-3-(4-(trifluoromethyl)phenyl)cyclobutoxy)-1H-indol-3-yl)bicyclo[1.1.1]pentane-1-carboxamide] | 200 to 1000 nM
6 | O=C(Nc1c[nH]c2ccc(O[C@H]3C[C@@H](c4ccc(C(F)(F)F)cc4)C3)cc12)c1cncs1 [Compound 178, N-(5-((1s,3s)-3-(4-(trifluoromethyl)phenyl)cyclobutoxy)-1H-indol-3-yl)thiazole-5-carboxamide] | 200 to 1000 nM
7 | O=C(Nc1c[nH]c2ccc(O[C@H]3C[C@H](c4ccc(C(F)(F)F)cc4)C3)cc12)C12CC(C1)C2 [Compound 212, N-{5-[(1R,3R)-3-[4-(trifluoromethyl)phenyl]cyclobutoxy]-1H-indol-3-yl}bicyclo[1.1.1]pentane-1-carboxamide] | 40 to 200 nM
8 | Cn1cc(C(=O)Nc2c[nH]c3ccc(O[C@H]4C[C@@H](c5ccc(C(F)(F)F)nc5)C4)cc23)nn1 [Compound 217, 1-methyl-N-(5-(cis-3-(6-(trifluoromethyl)pyridin-3-yl)cyclobutoxy)-1H-indol-3-yl)-1H-1,2,3-triazole-4-carboxamide] | 200 to 1000 nM
9 | O=C(Nc1c[nH]c2ccc(OCC[C@@H]3C[C@@H]4CN(CC(F)(F)F)C[C@@H]4C3)cc12)c1cscn1 [Compound 193, N-(5-(2-((3aR,5r,6aS)-2-(2,2,2-trifluoroethyl)octahydrocyclopenta[c]pyrrol-5-yl)ethoxy)-1H-indol-3-yl)thiazole-4-carboxamide] | 200 to 1000 nM
10 | CC1(C(=O)Nc2c[nH]c3ccc(OCC[C@@H]4C[C@@H]5CN(CC(F)(F)F)C[C@@H]5C4)cc23)CC2(COC2)C1 [Compound 205, 6-methyl-N-(5-(2-((3aR,5r,6aS)-2-(2,2,2-trifluoroethyl)octahydrocyclopenta[c]pyrrol-5-yl)ethoxy)-1H-indol-3-yl)-2-oxaspiro[3.3]heptane-6-carboxamide] | 200 to 1000 nM
11 | O=C(Nc1c[nH]c2ccc(OCc3ccc(C(F)(F)F)cc3)cc12)c1ccccn1 [Compound 149, N-(5-((4-(trifluoromethyl)benzyl)oxy)-1H-indol-3-yl)picolinamide] | 5000 to 100000 nM
12 | O=C(Nc1c[nH]c2ccc(OCC[C@@H]3C[C@@H]4CN(CC(F)(F)F)C[C@@H]4C3)cc12)c1ccccn1 [Compound 183, N-(5-(2-((3aR,5r,6aS)-2-(2,2,2-trifluoroethyl)octahydrocyclopenta[c]pyrrol-5-yl)ethoxy)-1H-indol-3-yl)picolinamide] | 1000 to 5000 nM
13 | O=C(Nc1c[nH]c2ccc(OCC[C@@H]3C[C@@H]4CN(CC(F)(F)F)C[C@@H]4C3)cc12)c1ccn[nH]1 [Compound 180, N-(5-(2-((3aR,5r,6aS)-2-(2,2,2-trifluoroethyl)octahydrocyclopenta[c]pyrrol-5-yl)ethoxy)-1H-indol-3-yl)-1H-pyrazole-5-carboxamide] | 200 to 1000 nM
14 | O=C(Nc1c[nH]c2ccc(CCOc3ccc(C(F)(F)F)cc3)cc12)C1CC2(CC2)C1 [Compound 198, N-(5-(2-(4-(trifluoromethyl)phenoxy)ethyl)-1H-indol-3-yl)spiro[2.3]hexane-5-carboxamide] | 200 to 1000 nM
15 | Cc1noc(C)c1C(=O)Nc1c[nH]c2ccc(OCC[C@@H]3C[C@@H]4CN(CC(F)(F)F)C[C@@H]4C3)cc12 [Compound 189, 3,5-dimethyl-N-(5-(2-((3aR,5r,6aS)-2-(2,2,2-trifluoroethyl)octahydrocyclopenta[c]pyrrol-5-yl)ethoxy)-1H-indol-3-yl)isoxazole-4-carboxamide] | 200 to 1000 nM
16 | Cc1oncc1C(=O)Nc1c[nH]c2ccc(OCC[C@@H]3C[C@@H]4CN(CC(F)(F)F)C[C@@H]4C3)cc12 [Compound 159, 5-methyl-N-(5-(2-((3aR,5r,6aS)-2-(2,2,2-trifluoroethyl)octahydrocyclopenta[c]pyrrol-5-yl)ethoxy)-1H-indol-3-yl)isoxazole-4-carboxamide] | 5000 to 100000 nM
17 | O=C(Nc1c[nH]c2ccc(OCc3ccc(C(F)(F)F)cc3)cc12)c1ccncc1 [Compound 147, N-(5-((4-(trifluoromethyl)benzyl)oxy)-1H-indol-3-yl)isonicotinamide] | 200 to 1000 nM
18 | Cc1oncc1C(=O)Nc1c[nH]c2ccc(OCCc3ccc(C(F)(F)F)cc3)cc12 [Compound 111] | 5000 to 100000 nM

Second part, the compound after the results:

Row | EC50 | SMILES
19 | 200 to 1000 nM | O=C(Nc1c[nH]c2ccc(CCOc3ccc(C(F)(F)F)cc3)cc12)c1ccncc1 [Compound 194, N-(5-(2-(4-(trifluoromethyl)phenoxy)ethyl)-1H-indol-3-yl)isonicotinamide]
20 | 200 to 1000 nM | O=C(Nc1c[nH]c2ccc(CCOc3ccc(C(F)(F)F)cc3)cc12)c1cscn1 [Compound 202, N-(5-(2-(4-(trifluoromethyl)phenoxy)ethyl)-1H-indol-3-yl)thiazole-4-carboxamide]
21 | 40 to 200 nM | O=C(Nc1c[nH]c2ccc(CCOc3ccc(C(F)(F)F)cc3)cc12)C1CC2(CCC2)C1 [Compound 144, N-(5-(2-(4-(trifluoromethyl)phenoxy)ethyl)-1H-indol-3-yl)spiro[3.3]heptane-2-carboxamide]
22 | 200 to 1000 nM | O=C(Nc1c[nH]c2ccc(OCc3ccc(C(F)(F)F)cc3)cc12)C1CC12CC2 (stereo not shown) [Compound 101, N-(5-((4-(trifluoromethyl)benzyl)oxy)-1H-indol-3-yl)spiro[2.2]pentane-1-carboxamide]
23 | 200 to 1000 nM | O=C(Nc1c[nH]c2ccc(OCCc3ccc(C(F)(F)F)cc3)cc12)c1ccncc1 [Compound 121, N-(5-(4-(trifluoromethyl)phenethoxy)-1H-indol-3-yl)isonicotinamide]
24 | 200 to 1000 nM | Cn1nccc1C(=O)Nc1c[nH]c2ccc(OCc3ccc(C(F)(F)F)cc3)cc12 [Compound 162, 1-methyl-N-(5-((4-(trifluoromethyl)benzyl)oxy)-1H-indol-3-yl)-1H-pyrazole-5-carboxamide]
25 | 200 to 1000 nM | O=C(Nc1c[nH]c2ccc(OCCc3ccc(C(F)(F)F)cc3)cc12)c1cscn1 [Compound 114, N-(5-(4-(trifluoromethyl)phenethoxy)-1H-indol-3-yl)thiazole-4-carboxamide]
26 | 40 to 200 nM | O=C(Nc1c[nH]c2ccc(OCCc3ccc(C(F)(F)F)cc3)cc12)C1CC2(CCC2)C1 [Compound 191, N-(5-(4-(trifluoromethyl)phenethoxy)-1H-indol-3-y)spiro[3.3]heptane-2-carboxamide]
27 | 200 to 1000 nM | Cc1noc(C)c1C(=O)Nc1c[nH]c2ccc(OCCc3ccc(C(F)(F)F)cc3)cc12 [Compound 112, 3,5-dimethyl-N-(5-(4-(trifluoromethyl)phenethoxy)-1H-indol-3-yl)isoxazole-4-carboxamide]
28 | 200 to 1000 nM | O=C(Nc1c[nH]c2ccc(OCC[C@@H]3C[C@@H]4CN(CC(F)(F)F)C[C@@H]4C3)cc12)C1CC12CCC2 (stereo partly drawn) [Compound 223, N-(5-(2-((3aR,5R,6aS)-2-(2,2,2-trifluoroethyl)octahydrocyclopenta [c]pyrrol-5-yl)ethoxy)-1H-indol-3-yl)spiro[2.3]hexane-1-carboxamide]
29 | 200 to 1000 nM | O=C(Nc1c[nH]c2ccc(OCc3ccc(C(F)(F)F)cc3)cc12)C1CC2(CCC2)C1 [Compound 151, N-(5-((4-(trifluoromethyl)benzyl)oxy)-1H-indol-3-yl)spiro[3.3]heptane-2-carboxamide]
30 | 200 to 1000 nM | N#CC12CC(C(=O)Nc3c[nH]c4ccc(COCc5ccc(C(F)(F)F)cc5)cc34)(C1)C2 [Compound 129, 3-cyano-N-(5-(((4-(trifluoromethyl)benzyl)oxy)methyl)-1H-indol-3-yl)bicyclo[1.1.1]pentane-1-carboxamide]
31 | 200 to 1000 nM | O=C(Nc1c[nH]c2ccc(OCC[C@@H]3C[C@@H]4CN(CC(F)(F)F)C[C@@H]4C3)cc12)c1ccncc1 [Compound 179, N-(5-(2-((3aR,5r,6aS)-2-(2,2,2-trifluoroethyl)octahydrocyclopenta[c]pyrrol-5-yl)ethoxy)-1H-indol-3-yl)isonicotinamide]
32 | 200 to 1000 nM | O=C(Nc1c[nH]c2ccc(OCCc3ccc(C(F)(F)F)cc3)cc12)c1cccnc1 [Compound 123, N-(5-(4-(trifluoromethyl)phenethoxy)-1H-indol-3-yl)nicotinamide]
33 | 200 to 1000 nM | O=C(CC1CC1)Nc1c[nH]c2ccc(CCOc3ccc(C(F)(F)F)cc3)cc12 [Compound 197, 2-cyclopropyl-N-(5-(2-(4-(trifluoromethyl)phenoxy)ethyl)-1H-indol-3-yl)acetamide]
34 | 40 to 200 nM | Cn1ccnc1C(=O)Nc1c[nH]c2ccc(OCCc3ccc(C(F)(F)F)cc3)cc12 [Compound 146, 1-methyl-N-(5-(4-(trifluoromethyl)phenethoxy)-1H-indol-3-yl)-1H-imidazole-2-carboxamide]
